# Data: ChEMBL document CHEMBL1127932, “6-isoxazolinyl and isoxazolidinyl substituted quinazolinones as angiotensin II receptor antagonists” (Bioorg Med Chem Lett, 1994)
# System: Rattus norvegicus
# Test: Percent inhibition of AII vasopressor response in SHR at 5 mg/kg of oral dose after 5 hr in hypertensive rats
# Type: functional
# Settings: not given
row,SMILES,inhibition in vivo at 5 mg/kg [%]
1,CCCCc1nc(Cl)c(CO)n1Cc1ccc(-c2ccccc2-c2nnn[nH]2)cc1 [LOSARTAN],50

# System: Rattus norvegicus
# Test: In vivo change in mean arterial blood pressure in conscious renin-dependent […] hypertensive rats at 1 mg/kg, p.o. after 2 hr
# Type: functional
# Settings: route oral
row,SMILES,Activity [mmHg]
1,CCCCc1nc2ccc([C@]3(C)C[C@H]4CCCN4O3)cc2c(=O)n1Cc1ccc(-c2ccccc2-c2nn[nH]n2)cc1,-5.5

# Target: T1, Angiotensin II receptor (Rattus norvegicus, UniProt P29089+P25095+P35351)
# T1 sequence (P29089 whole entry): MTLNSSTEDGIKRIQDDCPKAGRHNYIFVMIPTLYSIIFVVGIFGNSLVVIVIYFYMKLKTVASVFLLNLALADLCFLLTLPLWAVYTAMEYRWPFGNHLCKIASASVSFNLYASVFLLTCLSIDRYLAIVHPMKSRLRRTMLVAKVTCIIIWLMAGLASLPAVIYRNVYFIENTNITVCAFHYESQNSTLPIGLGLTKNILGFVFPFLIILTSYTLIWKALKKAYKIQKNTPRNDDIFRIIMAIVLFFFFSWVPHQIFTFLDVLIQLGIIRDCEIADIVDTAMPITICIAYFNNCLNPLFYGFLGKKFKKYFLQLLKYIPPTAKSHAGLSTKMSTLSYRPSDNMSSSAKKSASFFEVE
# T1 sequence (P25095 whole entry): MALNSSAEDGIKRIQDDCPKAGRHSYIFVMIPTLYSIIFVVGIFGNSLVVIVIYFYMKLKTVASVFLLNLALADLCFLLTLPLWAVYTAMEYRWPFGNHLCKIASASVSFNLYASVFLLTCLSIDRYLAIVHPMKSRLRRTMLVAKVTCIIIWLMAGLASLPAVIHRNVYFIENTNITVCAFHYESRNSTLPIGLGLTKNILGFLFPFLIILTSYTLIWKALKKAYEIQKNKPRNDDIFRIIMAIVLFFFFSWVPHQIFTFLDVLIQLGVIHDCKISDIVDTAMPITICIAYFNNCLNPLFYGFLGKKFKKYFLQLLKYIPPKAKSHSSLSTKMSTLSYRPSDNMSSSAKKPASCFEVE
# T1 sequence (P35351 whole entry): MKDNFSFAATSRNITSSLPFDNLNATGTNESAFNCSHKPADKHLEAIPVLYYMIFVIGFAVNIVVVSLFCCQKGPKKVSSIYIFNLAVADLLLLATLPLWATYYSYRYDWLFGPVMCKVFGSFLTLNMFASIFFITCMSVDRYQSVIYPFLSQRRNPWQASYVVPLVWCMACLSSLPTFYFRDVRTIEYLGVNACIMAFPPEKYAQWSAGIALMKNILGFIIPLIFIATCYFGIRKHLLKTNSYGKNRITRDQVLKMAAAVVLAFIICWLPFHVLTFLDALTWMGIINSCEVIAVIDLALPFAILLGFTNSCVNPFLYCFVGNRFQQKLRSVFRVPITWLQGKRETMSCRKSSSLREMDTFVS
# Test: In vitro Angiotensin II receptor antagonist activity in rat adrenal cortex tissue.
# Type: functional, tissue-based
# Settings: not given
row,IC50 [µM],SMILES
1,0.011,CCCCc1nc2ccc(C3CCCO3)cc2c(=O)n1Cc1ccc(-c2ccccc2-c2nn[nH]n2)cc1 (stereo not given)
2,0.005,CCCCc1nc2ccc(C3C=CCO3)cc2c(=O)n1Cc1ccc(-c2ccccc2-c2nn[nH]n2)cc1 (stereo not given)
3,0.047,CCCCc1nc2ccc(-c3ccco3)cc2c(=O)n1Cc1ccc(-c2ccccc2-c2nn[nH]n2)cc1
4,0.044,CCCCc1nc2ccc(-c3cccs3)cc2c(=O)n1Cc1ccc(-c2ccccc2-c2nn[nH]n2)cc1

# System: Rattus norvegicus
# Test: In vivo change in mean arterial blood pressure in conscious renin-dependent […] hypertensive rats at 1 mg/kg, p.o. after 30 min
# Type: functional
# Settings: route oral
row,SMILES,Activity [mmHg]
1,CCCCc1nc2ccc([C@]3(C)C[C@H]4CCCN4O3)cc2c(=O)n1Cc1ccc(-c2ccccc2-c2nn[nH]n2)cc1,-3

# Target: T2, Type-1 angiotensin II receptor (Bos taurus, UniProt P25104)
# T2 sequence (P25104 whole entry): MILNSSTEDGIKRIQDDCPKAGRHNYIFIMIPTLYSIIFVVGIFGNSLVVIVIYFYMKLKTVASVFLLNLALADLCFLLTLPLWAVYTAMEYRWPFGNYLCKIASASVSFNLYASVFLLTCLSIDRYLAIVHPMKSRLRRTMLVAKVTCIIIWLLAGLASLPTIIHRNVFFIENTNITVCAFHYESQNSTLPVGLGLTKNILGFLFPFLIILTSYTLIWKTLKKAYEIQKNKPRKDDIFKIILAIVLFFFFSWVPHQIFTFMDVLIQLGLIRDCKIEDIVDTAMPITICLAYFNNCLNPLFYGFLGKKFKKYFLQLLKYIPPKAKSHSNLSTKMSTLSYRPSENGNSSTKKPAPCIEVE
# Test: In vitro Angiotensin II receptor antagonism in bovine adrenal cortex tissue.
# Type: functional, tissue-based
# Settings: not given
row,IC50 [µM],SMILES
1,0.33,CCCCc1nc(Cl)c(CO)n1Cc1ccc(-c2ccccc2-c2nnn[nH]2)cc1 [LOSARTAN]
2,0.055,CCCCc1nc2ccc([C@@]3(C)C[C@H]4CCCN4O3)cc2c(=O)n1Cc1ccc(-c2ccccc2-c2nn[nH]n2)cc1
3,0.039,CCCCc1nc2ccc([C@@H]3C[C@H]4CCC(C)(C)N4O3)cc2c(=O)n1Cc1ccc(-c2ccccc2-c2nnn[nH]2)cc1
4,0.065,CCCCc1nc2ccc([C@@H]3C[C@@]4(C)CCCCN4O3)cc2c(=O)n1Cc1ccc(-c2ccccc2-c2nn[nH]n2)cc1
5,0.065,CCCCc1nc2ccc([C@]3(C)C[C@H]4CCC(C)(C)N4O3)cc2c(=O)n1Cc1ccc(-c2ccccc2-c2nnn[nH]2)cc1
6,0.056,CCCCc1nc2ccc([C@]3(c4ccccc4)C[C@H]4CCCN4O3)cc2c(=O)n1Cc1ccc(-c2ccccc2-c2nnn[nH]2)cc1
7,0.031,CCCCc1nc2ccc(C(C)(C)OC)cc2c(=O)n1Cc1ccc(-c2ccccc2-c2nn[nH]n2)cc1 [CL-329167]
8,0.07,CCCCc1nc2ccc([C@@]3(C)C[C@H]4CCC(C)(C)N4O3)cc2c(=O)n1Cc1ccc(-c2ccccc2-c2nnn[nH]2)cc1
9,0.035,CCCCc1nc2ccc([C@]3(CO)C[C@H]4CCCN4O3)cc2c(=O)n1Cc1ccc(-c2ccccc2-c2nnn[nH]2)cc1
10,0.057,CCCCc1nc2ccc([C@]3(C(=O)N(C)C)C[C@H]4CCCN4O3)cc2c(=O)n1Cc1ccc(-c2ccccc2-c2nnn[nH]2)cc1
11,0.027,CCCCc1nc2ccc([C@]3(C)C[C@H]4CCCN4O3)cc2c(=O)n1Cc1ccc(-c2ccccc2-c2nn[nH]n2)cc1
12,0.061,CCCCc1nc2ccc(C3(C(=O)N4CCCCC4)C[C@H]4CCCN4O3)cc2c(=O)n1Cc1ccc(-c2ccccc2-c2nn[nH]n2)cc1 (stereo not given in full)
13,0.058,CCCCc1nc2ccc([C@@]3(CC)C[C@H]4CCCN4O3)cc2c(=O)n1Cc1ccc(-c2ccccc2-c2nnn[nH]2)cc1
14,0.14,CCCCc1nc2ccc(C3(C)CC(C(=O)OCC)=NO3)cc2c(=O)n1Cc1ccc(-c2ccccc2-c2nn[nH]n2)cc1 (stereo not given)
15,0.41,CCCCc1nc2ccc(C3CC(c4cc(C)cs4)=NO3)cc2c(=O)n1Cc1ccc(-c2ccccc2-c2nnn[nH]2)cc1 (stereo not given)
16,0.069,CCCCc1nc2ccc([C@H]3ON4CCCC4C3C(=O)OCC)cc2c(=O)n1Cc1ccc(-c2ccccc2-c2nn[nH]n2)cc1 (stereo not given in full)
17,0.083,CCCCc1nc2ccc([C@]3(CC)C[C@H]4CCCN4O3)cc2c(=O)n1Cc1ccc(-c2ccccc2-c2nnn[nH]2)cc1
18,0.5,CCCCc1nc2ccc(C3CC(C(=O)O)=NO3)cc2c(=O)n1Cc1ccc(-c2ccccc2-c2nn[nH]n2)cc1 (stereo not given)
19,0.032,CCCCc1nc2ccc([C@@H]3C[C@H]4CCCN4O3)cc2c(=O)n1Cc1ccc(-c2ccccc2-c2nnn[nH]2)cc1
20,0.069,CCCCc1nc2ccc(C3(C(=O)N4CCCC4)C[C@H]4CCCN4O3)cc2c(=O)n1Cc1ccc(-c2ccccc2-c2nnn[nH]2)cc1 (stereo not given in full)
21,0.18,CCCCc1nc2ccc(C3CC(c4cc(C)co4)=NO3)cc2c(=O)n1Cc1ccc(-c2ccccc2-c2nnn[nH]2)cc1 (stereo not given)

row,SMILES,IC50 [µM]
1,CCCCc1nc2ccc([C@]3(C(=O)O)C[C@H]4CCCN4O3)cc2c(=O)n1Cc1ccc(-c2ccccc2-c2nnn[nH]2)cc1,0.046
2,CCCCc1nc2ccc([C@]3(C(=O)OC)C[C@H]4CCCN4O3)cc2c(=O)n1Cc1ccc(-c2ccccc2-c2nnn[nH]2)cc1,0.079
